Data taken from publication PMC3930474 (Journal of controlled release : official journal of the …, 2013).

Columns and labels:
4T1 tumors [1] = assay: Tumor homing / tumor extravasation of FAM-labeled peptides and conjugates; assay type: in vivo, mouse; settings: FAM-labeled peptide i.v., three hours after the injection
[2] = mouse, in vivo, iv
4T1 tumors [3] = assay: Evans Blue assay; assay type: in vivo, mouse; settings: mice

- plasma half-life [2]: 8 min
Substance: CRGDK/RGPD/EC (disulfide) [iRGD]
- peptide signal in the tumors (4T1 tumors [1]): had weakened
- duration of the bystander effect after a bolus injection (4T1 tumors [3]): less than one hour
